Among the data in patent US9131690B2, “Macrocyclic picolinamides as fungicides” (Dow AgroSciences LLC, priority 2012, dated 2015) are pest or weed control and melting point values, retold here.

Data set [1] concerns Puccinia triticina. Synonym: Puccinia recondite f. sp. tritici. In words: Fungicidal activity: Wheat Brown Rust (PUCCRT), wheat plants variety Yuma. The data set is classed as in vivo. The settings on record: Puccinia triticina. The gist of the method:
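Yuma wheat seedlings at first-leaf stage were inoculated with P. triticina spore suspension before or after fungicide treatment. Plants were held overnight at 100% relative humidity, then kept in a 24 C greenhouse for disease development.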

In data set [2] the test system is Mycosphaerella graminicola; Anamorph: Septoria tritici. In words: Fungicidal activity: Leaf Blotch of Wheat (SEPTTR), wheat plants variety Yuma. It counts as in vivo. The settings on record: Zymoseptoria tritici. The gist of the method:
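Greenhouse wheat seedlings at first-leaf stage, 7-10 per pot, inoculated with aqueous Septoria tritici spore suspension before or after fungicide treatment. Kept at 100% relative humidity (1 day dark dew chamber, then 2-3 days lighted), then greenhouse at 20° C. for disease development.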

Where [3] appears, read: 24 h, 1 Day Protectant, read-out: PUCCRT 1DP Disease Control.
[4] abbreviates: 72 h, 3 Day Curative, read-out: PUCCRT 3DC Disease Control.
[5] abbreviates: 24 h, 1 Day Protectant, read-out: SEPTTR 1DP Disease Control.
Setting [6] is: 72 h, 3 Day Curative, read-out: SEPTTR 3DC Disease Control.

Where two headings read alike, the source gives them in different places.

In the case of `COc1ccnc(C(=O)N[C@H]2COC(=O)[C@H](CCOC(=O)c3ccc(C(F)(F)F)cc3)[C@@H](OC(=O)C(C)C)[C@H](C)OC2=O)c1OC(C)=O` [Compound 68], the melting point – broadly, the temperature of the solid-liquid transition – was 199 to 200 °C. Besides, in data set [1] (setting [3]), the pest or weed control at 100 ppm was in the range of 0 to 50%. For the same molecule, in data set [1] (setting [4]), the pest or weed control at 100 ppm lay in the range of 0 to 50%. For the same molecule, the pest or weed control at 100 ppm in data set [2] (setting [5]) lay within 0 to 50%. For the same molecule, the pest or weed control at 100 ppm in data set [2] (setting [6]) was in the range of 0 to 50%.

As for `CC[C@H]1C(=O)OC[C@H](NC(=O)c2nccc(OC)c2OC(C)=O)C(=O)O[C@@H](C)[C@@H]1OC(=O)C(C)C` [Compound 69], the melting point lay within 158 to 161 °C. In data set [1] (setting [3]), the pest or weed control at 100 ppm is 50 to 100%. In addition, the pest or weed control at 100 ppm in data set [1] (setting [4]) lay in the range of 50 to 100%. Moreover, the pest or weed control at 100 ppm in data set [2] (setting [5]) is 50 to 100%. Further, the pest or weed control at 100 ppm in data set [2] (setting [6]) lay within 50 to 100%.

In the case of `COc1ccnc(C(=O)N[C@H]2COC(=O)[C@H](Cc3cccnc3)[C@@H](OC(=O)C(C)C)[C@H](C)OC2=O)c1OC(C)=O` [Compound 70], the melting point was in the range of 151 to 160 °C. Further, the pest or weed control at 100 ppm in data set [1] (setting [3]) fell in the range of 50 to 100%. In data set [1] (setting [4]), the pest or weed control at 100 ppm was 50 to 100%. The pest or weed control at 100 ppm in data set [2] (setting [5]) is 0 to 50%. The pest or weed control at 100 ppm in data set [2] (setting [6]) was 0 to 50%.
